Active and inactive are the calls of the source.
Columns and labels:
Bcl-2-related protein A1 = target: T1, Bcl-2-related protein A1 (Mus musculus, UniProt Q07440); assay type: functional;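 also: confirmatory dose–response counterscreen on Bfl-1, used to check hits from a UBC13 polyubiquitin inhibitor campaign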
T1 sequence (Q07440 whole entry): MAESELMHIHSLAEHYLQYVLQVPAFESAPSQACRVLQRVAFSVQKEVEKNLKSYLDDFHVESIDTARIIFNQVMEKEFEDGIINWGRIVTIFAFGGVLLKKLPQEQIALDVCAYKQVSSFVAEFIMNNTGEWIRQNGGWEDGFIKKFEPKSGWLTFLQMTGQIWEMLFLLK

[1] = target: T2, Ubiquitin-conjugating enzyme E2 N (Homo sapiens, UniProt P61088); assay type: functional
T2 sequence (P61088 whole entry): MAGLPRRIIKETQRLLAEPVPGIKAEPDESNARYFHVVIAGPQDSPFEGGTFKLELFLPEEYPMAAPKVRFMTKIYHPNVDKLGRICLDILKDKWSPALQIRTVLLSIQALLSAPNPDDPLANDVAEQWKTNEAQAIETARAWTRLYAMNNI

[2] = target: T2, Ubiquitin-conjugating enzyme E2 N; assay type: functional; remark: listed apart in the source
[3] = target: T3, RNA-binding protein pos-1 (Caenorhabditis elegans, UniProt G5EF15); assay: inhibitors of POS-1/mex-3 RNA binding, dose response, biochemical, fluorescence polarization (AID 1964);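 also: purified POS-1 fused to maltose binding protein made in E. coli; potency of compounds blocking POS-1 binding to fluorescent RNA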
T3 sequence (G5EF15 whole entry): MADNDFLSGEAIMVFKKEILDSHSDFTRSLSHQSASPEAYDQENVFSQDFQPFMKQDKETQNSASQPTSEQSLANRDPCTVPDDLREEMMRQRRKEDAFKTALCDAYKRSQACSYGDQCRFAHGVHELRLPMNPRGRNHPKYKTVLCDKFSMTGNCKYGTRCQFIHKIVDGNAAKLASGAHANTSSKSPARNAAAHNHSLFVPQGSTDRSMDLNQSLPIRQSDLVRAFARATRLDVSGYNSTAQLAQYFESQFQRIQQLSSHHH

Streptococcus = assay: Group A Streptococcus viability loss, dose response, counter-screen for streptokinase expression inhibitor project, luminescence, BacTiterGlo (AID 1915); assay type: functional, organism-based;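 also: potency for reduction of bacterial viability or growth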
Albumin = Albumin (Bos taurus, UniProt P02769); assay: Counterscreen for inhibitors of T-cell receptor (TCR)-CD3 interaction: Fluorescence-based biochemical high throughput dose response assay to identify inhibitors of T-cell receptor (TCR)-CD3 interaction using a TAMRA-labeled BSA probe.; assay type: functional
SUMO-activating enzyme [4] = target: T4, SUMO-activating enzyme (Homo sapiens, UniProt Q9UBT2); assay: SUMOylation inhibitor hit validation, confirmation, SUMOylation inhibitor project, biochemical, AlphaScreen (AID 2018); assay type: functional
Leucine aminopeptidase = target: T5, Leucine aminopeptidase (Plasmodium falciparum 3D7, UniProt Q8IL11); assay: P. falciparum M17LAP inhibitors, primary screen, biochemical, fluorogenic H-Leu-NHMec substrate, 1536-well (AID 1619); assay type: functional
T5 sequence (Q8IL11 whole entry): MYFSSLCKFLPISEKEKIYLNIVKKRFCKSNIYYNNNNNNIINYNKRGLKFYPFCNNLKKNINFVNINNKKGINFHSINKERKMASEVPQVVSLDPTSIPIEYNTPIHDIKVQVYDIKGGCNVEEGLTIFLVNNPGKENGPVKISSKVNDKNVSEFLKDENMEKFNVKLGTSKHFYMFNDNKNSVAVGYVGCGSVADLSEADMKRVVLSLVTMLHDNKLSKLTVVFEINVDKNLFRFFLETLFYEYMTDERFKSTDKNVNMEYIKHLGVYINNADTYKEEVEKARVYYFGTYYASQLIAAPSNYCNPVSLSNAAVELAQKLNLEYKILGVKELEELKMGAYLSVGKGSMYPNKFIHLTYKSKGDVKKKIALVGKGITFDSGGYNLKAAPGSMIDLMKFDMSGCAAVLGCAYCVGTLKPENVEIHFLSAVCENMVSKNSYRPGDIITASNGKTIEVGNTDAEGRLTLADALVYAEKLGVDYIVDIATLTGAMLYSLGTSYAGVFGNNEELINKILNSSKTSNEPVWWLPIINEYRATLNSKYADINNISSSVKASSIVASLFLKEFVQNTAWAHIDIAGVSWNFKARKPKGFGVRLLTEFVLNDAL

Aminopeptidase N = target: T6, Aminopeptidase N (Plasmodium falciparum FcB1/Columbia, UniProt O96935); assay: P. falciparum M1AAP inhibitors, biochemical, fluorogenic H-Leu-NHMec substrate, 1536-well (AID 1445); set-up: species or system Plasmodium falciparum 3D7, 3D7
T6 sequence (O96935 whole entry): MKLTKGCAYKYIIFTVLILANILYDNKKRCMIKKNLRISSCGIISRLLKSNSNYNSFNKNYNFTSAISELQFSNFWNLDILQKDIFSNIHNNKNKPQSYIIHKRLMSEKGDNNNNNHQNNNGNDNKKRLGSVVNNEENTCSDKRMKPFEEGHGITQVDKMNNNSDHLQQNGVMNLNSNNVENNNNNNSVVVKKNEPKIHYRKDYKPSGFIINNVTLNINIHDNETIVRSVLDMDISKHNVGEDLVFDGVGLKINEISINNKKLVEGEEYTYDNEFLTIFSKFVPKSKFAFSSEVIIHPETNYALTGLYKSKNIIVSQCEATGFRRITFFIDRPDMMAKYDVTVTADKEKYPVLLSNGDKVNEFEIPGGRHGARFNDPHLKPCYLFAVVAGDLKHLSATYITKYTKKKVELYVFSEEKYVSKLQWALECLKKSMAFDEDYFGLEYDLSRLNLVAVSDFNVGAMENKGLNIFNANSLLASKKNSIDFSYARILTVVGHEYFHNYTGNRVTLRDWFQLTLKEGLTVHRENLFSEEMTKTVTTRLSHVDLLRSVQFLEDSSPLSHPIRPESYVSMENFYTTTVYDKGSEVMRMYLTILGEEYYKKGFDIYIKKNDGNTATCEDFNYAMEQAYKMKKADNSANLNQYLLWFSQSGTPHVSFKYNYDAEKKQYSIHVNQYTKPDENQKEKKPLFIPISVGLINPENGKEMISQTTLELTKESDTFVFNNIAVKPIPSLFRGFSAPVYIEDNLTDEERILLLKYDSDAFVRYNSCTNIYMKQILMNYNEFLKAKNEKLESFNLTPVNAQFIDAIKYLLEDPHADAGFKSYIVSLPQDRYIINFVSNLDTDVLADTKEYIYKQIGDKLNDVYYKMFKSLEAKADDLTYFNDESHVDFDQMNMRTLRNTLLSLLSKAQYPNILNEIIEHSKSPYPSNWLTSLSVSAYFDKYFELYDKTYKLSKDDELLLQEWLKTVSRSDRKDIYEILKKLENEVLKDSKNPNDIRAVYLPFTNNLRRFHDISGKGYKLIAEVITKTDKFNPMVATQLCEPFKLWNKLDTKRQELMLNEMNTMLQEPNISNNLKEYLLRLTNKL

[5] = tested on: Streptococcus sp. 'group A'; assay: growth inhibition of control SK(-) GAS strain, dose response, counter-screen for streptokinase expression inhibitor project, luminescence, kanamycin, BacTiterGlo, confirmation (AID 1900); assay type: functional, organism-based
SUMO-activating enzyme [6] = target: T4, SUMO-activating enzyme; assay: inhibitors of in vitro SUMOylation cascade, primary screen, biochemical, HTRF, uHTS (AID 2006); assay type: protein-complex assay
Nonstructural protein 1 = Nonstructural protein 1 (Influenza A virus, UniProt Q194T2); assay type: functional, Influenza A virus (A/California/07/2009(H1N1))
[7] = target: T7, Zinc finger protein mex-5 (Caenorhabditis elegans, UniProt Q9XUB2); assay: MEX-5/TCR-2 RNA interaction inhibitors, dose response, biochemical, C. elegans, fluorescence polarization (AID 1960)
T7 sequence (Q9XUB2 whole entry): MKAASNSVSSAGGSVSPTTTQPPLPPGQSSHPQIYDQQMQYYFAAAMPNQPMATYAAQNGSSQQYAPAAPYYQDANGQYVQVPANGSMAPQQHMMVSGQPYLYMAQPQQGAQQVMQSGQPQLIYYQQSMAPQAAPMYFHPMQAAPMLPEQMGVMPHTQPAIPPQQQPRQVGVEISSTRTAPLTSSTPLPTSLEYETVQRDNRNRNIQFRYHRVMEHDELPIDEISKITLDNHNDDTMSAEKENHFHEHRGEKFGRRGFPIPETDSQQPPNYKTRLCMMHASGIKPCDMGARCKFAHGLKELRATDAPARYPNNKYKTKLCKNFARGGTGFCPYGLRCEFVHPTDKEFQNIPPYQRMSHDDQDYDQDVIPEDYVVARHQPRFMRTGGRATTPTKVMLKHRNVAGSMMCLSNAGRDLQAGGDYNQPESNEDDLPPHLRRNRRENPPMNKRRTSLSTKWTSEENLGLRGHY

[8] = target: T8, Neuropeptides B/W receptor type 1 (Homo sapiens, UniProt P48145); assay: Fluorescence-based dose response cell-based high throughput screening assay to identify antagonists of the G-protein coupled receptor 7 (GPR7). [Related pubchem assays: 1952 (Screening assay (GPR7 antagonists).), 1880 (Summary AID.)]; assay type: functional
T8 sequence (P48145 whole entry): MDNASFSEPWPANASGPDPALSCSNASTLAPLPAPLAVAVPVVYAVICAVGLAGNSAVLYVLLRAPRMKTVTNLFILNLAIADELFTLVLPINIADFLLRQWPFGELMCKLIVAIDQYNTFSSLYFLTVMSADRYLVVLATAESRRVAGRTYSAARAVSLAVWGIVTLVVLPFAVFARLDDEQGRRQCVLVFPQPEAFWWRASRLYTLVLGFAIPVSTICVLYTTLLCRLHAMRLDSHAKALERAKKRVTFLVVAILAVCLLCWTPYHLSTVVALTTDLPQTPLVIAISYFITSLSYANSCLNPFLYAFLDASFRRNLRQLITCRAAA

[9] = target: Melanin-concentrating hormone receptor 1 (Homo sapiens, UniProt Q99705); assay: Fluorescence-based counterscreen for antagonists of the G-protein coupled receptor 7 (GPR7): cell-based high throughput dose response assay to identify antagonists of the melanin-concentrating hormone receptor 1 (MCHR1).; assay type: functional
[10] = inhibitors of clade B AD8 Env fusion, dose response, cell-based, cherry-pick (AID 652062); assay type: functional;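 also: luciferase signal from cell-cell fusion driven by HIV-1 clade B AD8 Env; potency is for inhibitors of fusion seen as a drop in luminescence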
[11] = ZM109 Env clade C HIV-1 fusion inhibitors, dose response, HeLa effector, CEM target cells, luciferase, cherry-pick (AID 652058); assay type: functional, cell-based
[12] = inhibitors of HIV Env-driven cell fusion, dose response, cherry-pick (AID 652057); assay type: functional, cell-based
[13] = off-target signal loss in HeLa-CEM21 co-culture – HeLa F-luc CTL cells, cherry-picked, counter-screen for HIV-1 Env fusion inhibitor project, dose response (AID 652040); assay type: functional, cell-based;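 also: potency for signal decrease marking cytotoxic or nonspecific inhibition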
Vero = assay: cells; assay type: functional; details: Chlorocebus sabaeus

T4 sequence (Q9UBE0 whole entry): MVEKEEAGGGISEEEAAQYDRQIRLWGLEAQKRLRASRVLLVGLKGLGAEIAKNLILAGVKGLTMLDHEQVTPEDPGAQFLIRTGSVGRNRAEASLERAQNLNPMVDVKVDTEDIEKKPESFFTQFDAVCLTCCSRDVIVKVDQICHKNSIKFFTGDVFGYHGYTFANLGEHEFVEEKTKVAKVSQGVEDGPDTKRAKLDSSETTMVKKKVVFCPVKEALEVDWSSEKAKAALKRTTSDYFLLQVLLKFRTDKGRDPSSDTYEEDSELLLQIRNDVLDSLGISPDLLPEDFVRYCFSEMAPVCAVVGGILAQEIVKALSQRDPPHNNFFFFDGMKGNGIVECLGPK
T4 sequence (Q9UBT2 whole entry): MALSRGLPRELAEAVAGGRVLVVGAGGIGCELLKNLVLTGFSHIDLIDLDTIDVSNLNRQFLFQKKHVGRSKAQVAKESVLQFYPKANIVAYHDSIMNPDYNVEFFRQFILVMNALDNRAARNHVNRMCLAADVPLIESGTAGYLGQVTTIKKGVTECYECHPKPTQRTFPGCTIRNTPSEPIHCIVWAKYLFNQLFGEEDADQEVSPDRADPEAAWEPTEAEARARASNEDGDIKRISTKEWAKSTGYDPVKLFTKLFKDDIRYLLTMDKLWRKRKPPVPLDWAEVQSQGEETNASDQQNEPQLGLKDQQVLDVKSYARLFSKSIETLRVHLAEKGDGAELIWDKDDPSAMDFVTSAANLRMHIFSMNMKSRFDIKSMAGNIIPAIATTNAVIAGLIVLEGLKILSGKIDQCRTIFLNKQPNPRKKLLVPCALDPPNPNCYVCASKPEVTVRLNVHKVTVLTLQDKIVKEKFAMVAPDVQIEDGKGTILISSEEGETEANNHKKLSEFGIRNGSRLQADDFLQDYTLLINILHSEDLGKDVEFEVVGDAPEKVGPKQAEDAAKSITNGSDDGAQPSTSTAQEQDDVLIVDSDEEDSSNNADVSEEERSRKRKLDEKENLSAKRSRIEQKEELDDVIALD
Melanin-concentrating hormone receptor 1, sequence (Q99705 whole entry, the tested form may be a part): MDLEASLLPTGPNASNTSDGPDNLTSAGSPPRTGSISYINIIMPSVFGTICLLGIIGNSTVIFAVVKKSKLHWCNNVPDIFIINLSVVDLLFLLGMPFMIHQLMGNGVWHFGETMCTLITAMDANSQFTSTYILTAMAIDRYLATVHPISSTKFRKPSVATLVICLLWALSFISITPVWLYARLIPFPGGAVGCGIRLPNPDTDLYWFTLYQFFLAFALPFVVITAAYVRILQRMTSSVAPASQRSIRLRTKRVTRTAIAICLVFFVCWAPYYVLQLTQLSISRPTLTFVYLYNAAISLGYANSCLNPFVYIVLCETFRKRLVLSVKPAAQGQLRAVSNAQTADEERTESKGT
Albumin, sequence (P02769 whole entry): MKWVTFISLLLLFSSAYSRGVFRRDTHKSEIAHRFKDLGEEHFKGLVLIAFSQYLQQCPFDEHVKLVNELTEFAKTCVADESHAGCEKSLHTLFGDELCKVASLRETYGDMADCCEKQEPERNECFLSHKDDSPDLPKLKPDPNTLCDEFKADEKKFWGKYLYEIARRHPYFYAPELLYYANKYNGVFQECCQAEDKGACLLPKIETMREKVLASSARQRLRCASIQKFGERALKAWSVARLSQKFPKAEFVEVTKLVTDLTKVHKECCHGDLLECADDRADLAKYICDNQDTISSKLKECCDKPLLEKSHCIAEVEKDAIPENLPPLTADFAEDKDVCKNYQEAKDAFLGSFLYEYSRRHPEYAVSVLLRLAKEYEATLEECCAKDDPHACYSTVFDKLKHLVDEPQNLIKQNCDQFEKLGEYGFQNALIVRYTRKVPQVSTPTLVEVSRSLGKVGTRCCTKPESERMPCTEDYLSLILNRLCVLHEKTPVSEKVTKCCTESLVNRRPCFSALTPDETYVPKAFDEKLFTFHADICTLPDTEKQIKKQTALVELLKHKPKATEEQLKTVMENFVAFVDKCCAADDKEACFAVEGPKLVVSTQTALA
Nonstructural protein 1, sequence (Q194T2 whole entry): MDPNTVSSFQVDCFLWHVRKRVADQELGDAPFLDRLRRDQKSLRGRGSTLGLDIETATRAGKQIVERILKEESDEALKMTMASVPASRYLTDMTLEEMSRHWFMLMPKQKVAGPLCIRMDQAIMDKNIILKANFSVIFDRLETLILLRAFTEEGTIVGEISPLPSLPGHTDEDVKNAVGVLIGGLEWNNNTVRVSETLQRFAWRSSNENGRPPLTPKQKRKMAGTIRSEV

Which IC50 (Bcl-2-related protein A1) does the source give for `C=CCNC(=S)Nc1sc2c(c1C(=O)OCC)CCN(C(=O)OCC)C2` here?
Its IC50 is > 20 µM (inactive).

And the IC50 [1]?
Its IC50 is > 20 µM (inactive).

What about the IC50 [2] of the same compound?
Its IC50 is 12.4 µM (active).

What does the source list for `O=C1NC(=O)N(Cc2ccco2)C(=O)/C1=C/NNC(=O)c1ccccc1O`?
EC50 [3]: 15.5 µM (active); EC50 (Streptococcus): 6.03 µM (active); IC50 (Albumin): > 94 µM (inactive); IC50 (SUMO-activating enzyme [4]): 2.29 µM (active); IC50 (Leucine aminopeptidase): 50.3 µM (active); IC50 (Aminopeptidase N): 26.2 µM (active); EC50 [5]: 3 µM (active); IC50 (SUMO-activating enzyme [6]): 15 µM (active); IC50 (Nonstructural protein 1): 42.3 µM (active); EC50 [7]: 16.9 µM (active)

Which IC50 [8] does the source give for `COc1ccc(NS(=O)(=O)c2cccc(C(=O)NCC(c3ccc(F)cc3)N3CCOCC3)c2)cc1` (centres undefined) here?
The IC50 was > 43.8 µM (not active).

What about the IC50 [9] of the same compound?
The IC50 was 23.6 µM (not active).

With `COC(=O)CNC(c1ccccc1)c1cc(C)ccc1NC(=O)CNC(=O)OCc1ccccc1` (centres undefined) as the compound, how does the IC50 [8] read?
Its IC50 is 35.3 µM (not active).

What about the IC50 [9] of the same compound?
The IC50 was 20 µM (not active).

And the AC50 [10]?
Its AC50 is 36.1 µM (active).

What about the AC50 [11] of the same compound?
Its AC50 is 6.89 µM (active).

And the AC50 [12]?
The AC50 was 3.28 µM (active).

And the AC50 [13]?
Its AC50 is 6.15 µM (active).

Which results are given for `Sc1nnc(-c2cccs2)n1/N=C/c1cn(-c2ccccc2)nc1-c1ccc(Cl)cc1`?
IC50 (SUMO-activating enzyme [4]): 5.24 µM (active); CC50 (Vero): > 25 µM (active); IC50 (SUMO-activating enzyme [6]): 34.5 µM (active)

— ChEMBL document CHEMBL1201862, “PubChem BioAssay data set” (2004)
